The record followed here is patent US20250170155A1, “NUCLEOSIDE DERIVATIVES AND PRODRUGS THEREOF HAVING VIRAL GROWTH INHIBITORY ACTION” (Shionogi & Co., Ltd., priority 2021, published 2025).

The test system of series [1] is RPMI 2650 cells. Kind of series: Cytotoxic activity evaluation, RPMI 2650 cells. It counts as cell-based. As to conditions: read-out: Influenza test CC50 (50% cell proliferation inhibitory concentration), no virus, 3 to 6 days. As to the method: (§1) <Operation Procedure (Cytotoxic Activity Evaluation)>
On the day before the compound treatment, cells prepared to an appropriate number were seeded in a 96 well plate at 100 μL/well. Thereafter, the cells were cultured in a CO2 incubator at 37° C. • Preparation of 2 μg/mL trypsin/0.5% BSA/MEM
Same as those described in the section for evaluation of antiviral activity • Dilution and dispensing of test substance
A 3- to 5-fold serial dilution series of test substances was prepared in DMSO in advance, and diluted with 2 μg/mL trypsin/0.5% BSA/MEM so that the final concentration of DMSO was 0.5% (100 to 200 μL/well). The cells were washed with MEM, and then cultured in a test substance-added medium for 3 to 6 days. Double measurement was performed for each drug. • Dispensing of resazurin solution
Same as those described in the section for evaluation of antiviral activity • Measurement of fluorescence intensity
(§2) Same as those described in the section for evaluation of antiviral activity
(§3) [formula] [formula] • Calculation of Selectivity Index (SI)

Series [2] concerns influenza virus (A/WSN/33 (H1N1) strain). Kind of series: CPE suppression effect confirmation test (influenza virus, RPMI 2650 cells), antiviral activity. Particulars: read-out: Influenza EC50 (50% CPE inhibitory concentration), A/WSN/33 (H1N1), 3 to 6 days. It counts as cell-based.
Series [3] deals with SARS-CoV-2 (hCoV-19/Japan/TY/WK-521/2020 strain). Kind of series: CPE suppression effect confirmation test (SARS-CoV-2, Vero E6/TMPRSS2 cells), antiviral activity. Particulars: read-out: SARS-CoV-2 EC50 (50% CPE inhibitory concentration), 3 days culture. The class given is cell-based.
The subject of series [4] is Vero E6/TMPRSS2 cells. Kind of series: Cytotoxic activity evaluation, Vero E6/TMPRSS2 cells. The class given is cell-based. As to conditions: read-out: SARS-CoV-2 test CC50 (50% cell proliferation inhibitory concentration), no virus, 3 days. As to the method: as §1
A 3- to 5-fold serial dilution series of test substances was prepared in DMSO, diluted with 2% FBS/MEM so that the concentration of DMSO was 2%, and dispensed into a 96 well plate (50 μL/well, DMSO final concentration 0.5%). • Dilution and dispensing of cells
The cells prepared to an appropriate number were seeded at 100 μL/well to the plate into which the test substance was dispensed. Thereafter, the cells were cultured in a CO2 incubator at 37° C. for 3 days. • Dispensing of CellTiter-Glo (registered trademark) 2.0 Reagent
(§4) Same as those described in the section for evaluation of antiviral activity • Measurement of luminescence intensity
as §2
Excel, TIBCO Spotfire, or a program having equivalent calculation processing capability based on the following calculation formula.

Series [5] is described as follows: Lung distribution test. It counts as in vivo. As to conditions: SD rats, 8 hours after oral administration (25 mg/kg); for concentration at 8 h: rat, read-out: Prodrug form concentration (lung). The procedure:
Test Example 5: Lung Distribution Test
Materials and methods for experiments • (1) Animals used: SD rats are used. • (2) Rearing conditions: the SD rats are allowed to freely take solid feed and sterilized tap water. • (3) Dose and grouping setting: a given dose is orally administered. Grouping is set as below.
Oral administration: 1 to 100 mg/kg (n=2 to 3) • (4) The test sample is orally administered in a form of solution or suspension. • (5) Administration method: the test sample is forcedly administered into the stomach through an oral probe for the oral administration. • (6) Evaluation items: Blood and lung are collected, and the concentrations of the compound of the present invention in plasma and lung are measured using LC/MS/MS.
Lung concentrations of Compound I-057 as an active form and Compound I-077 as a prodrug form thereof 8 hours after they were orally administered (25 mg/kg) are shown below.
In addition, lung concentrations of other prodrug forms 8 hours after they were orally administered (25 mg/kg) are shown below.

A short description of series [6]: Cytotoxic activity evaluation, HEK293T/ACE2-TMPRSS2 cells. As to conditions: human, no virus. It counts as cell-based. As to the method: as §1
A 3- to 5-fold serial dilution series of test substances was prepared in DMSO, diluted with 2% FIBS/MEM so that the concentration of DMSO was 2%, and dispensed into a 96 or 384/well well plate (50 μL/well or 40 μL/well, DMSO final concentration 0.5%). • Dilution and dispensing of cells
The cells prepared to an appropriate number were seeded at 100 μL/well or 40 μL/well to the plate into which the test substance was dispensed. Thereafter, the cells were cultured in a CO2 incubator at 37° C. for 3 days. • Dispensing of CellTiter-Glo (registered trademark) 2.0 Reagent
as §4, §2, §3

The test system of series [7] is SARS-CoV-2 (hCoV-19/Japan/TY/WK 521/2020 strain). As to the kind of experiment: microbe, parasite or virus in culture. It counts as cell-based. Particulars: HEK293T/ACE2-TMPRSS2 cells; for EC50: Severe acute respiratory syndrome coronavirus 2, HEK-293T, 72 h, read-out: SARS-CoV-2 EC50 (50% CPE inhibitory concentration), 293T-AT, 3 days culture.

Take `Cn1ccc(-c2cc([C@H]3[C@@H]4OC(C)(C)O[C@@H]4[C@@H](CO)N3C(=O)OC(C)(C)C)n3ncnc(N)c23)n1` [Compound I-030]: the CC50 in series [1] was more than 500 µM. For the same compound, in series [2], the EC50 stood at 7.65 µM.
As to `N#C[C@@]1(c2c[nH]c3c(N)ncnc23)O[C@H](CO)[C@@H](O)[C@H]1O` [Compound I-048], the EC50 in series [3] was 40.9 µM. Moreover, the CC50 in series [4] is more than 500 µM.
`OC[C@H]1N[C@@H](c2ccc3c(NO)ncnn23)[C@H](O)[C@@H]1O` [Compound I-020]: the CC50 in series [1] is more than 500 µM. Also, in series [2], the EC50 was found to be 20.2 µM.
`CC(C)(C)CC(=O)OC[C@H]1N[C@@H](c2cc(C(N)=O)c3c(N)ncnn23)[C@H](O)[C@@H]1O` [Compound I-058]: the concentration at 8 h in series [5] came to 12.7 ng/g.
For `CC(O)c1cc([C@@H]2N[C@H](CO)[C@@H](O)[C@H]2O)c2ncnc(N)n12` (some centres unmarked) [Compound I-038], the CC50 in series [1] is more than 500 µM. In addition, in series [2], the EC50 was 4.41 µM.
As for `CCC(C)(C)C(=O)OC[C@H]1N[C@@H](c2cc(C(N)=O)c3c(N)ncnn23)[C@H](O)[C@@H]1O` [Compound I-063], the concentration at 8 h in series [5] is 3.85 ng/g.
For the compound `Nc1ncnn2c([C@@H]3N[C@H](CO)[C@@H](O)[C@H]3O)cc(O)c12` [Compound I-022], the CC50 is more than 500 µM in series [1] and 129 µM in series [4]. Besides, the EC50 in series [3] stood at 1.03 µM; in series [2] it was 105 µM.
Regarding `CCC(CC)C(=O)OC[C@H]1N[C@@H](c2cc(C(N)=O)c3c(N)ncnn23)[C@H](O)[C@@H]1O` [Compound I-054], the “Active form concentration (lung)” value in series [5] is recorded as 6480 ng/g.
Regarding `CC1(C)O[C@@H]2[C@H](O1)[C@@H](CO)N[C@H]2c1cc(/C=N/O)c2c(N)ncnn12` [Compound I-018], in series [1], the CC50 is more than 500 µM. The EC50 in series [2] worked out at 1.06 µM.
As to `N/C(=N\O)c1cc([C@@H]2N[C@H](CO)[C@@H](O)[C@H]2O)n2ncnc(N)c12` [Compound I-016], the EC50 in series [3] is 1.57 µM. For the same compound, in series [4], the CC50 is more than 500 µM.
For `Nc1ncnn2c([C@@H]3O[C@](F)(CO)[C@@H](O)C3(F)F)ccc12` [Compound I-008], the CC50 in series [1] was 432 µM. Also, the EC50 in series [2] was determined as 7.01 µM.
With `CC(C)(C(=O)OC[C@H]1N[C@@H](c2cc(C(N)=O)c3c(N)ncnn23)[C@H](O)[C@@H]1O)c1ccccc1` [Compound I-072], the concentration at 8 h in series [5] stood at 6.41 ng/g.
On to `CC(C)(C)OC(=O)N1[C@H](CO)[C@@H](O)[C@@H](O)[C@@H]1c1cc(N)c2c(N)ncnn12` [Compound I-024], for which the values for the CC50 in series [1] and in series [4] were 310 µM and 189 µM, respectively. Further, the results for the EC50 in series [3] and in series [2] were 49.3 µM and 47.9 µM, respectively.
As to `CCn1cc(-c2cc([C@@H]3N[C@H](CO)[C@@H](O)[C@H]3O)n3ncnc(N)c23)nn1.Cl` [Compound I-093], in series [6], the CC50 at 3 days is more than 500 µM. Also, in series [7], the “SARS-CoV-2 SI (Selectivity Index), 293T-AT” value was more than 2.37 and the EC50 was 211 µM.
For `Cc1nc(-c2cc([C@@H]3N[C@H](CO)[C@@H](O)[C@H]3O)n3ncnc(N)c23)n[nH]1` [Compound I-088], the CC50 at 3 days in series [6] was more than 500 µM. In series [7], the “SARS-CoV-2 SI (Selectivity Index), 293T-AT” value is on record as more than 16.4 and the EC50 was found to be 30.4 µM.
